Eight compounds from PubChem BioAssay AID1259407 (Chemical Carcinogenesis Research Information System (CCRIS), 2018) can be followed below.

The subject of this data set is CCRIS mutagenicity, Ames/micronucleus/aberration tests. The experiment in a line: CCRIS mutagenicity studies.
[1] abbreviates: Test System: AMES SALMONELLA TYPHIMURIUM, Strain/Indicator: TA100, Metabolic Activation: NONE, Method: STANDARD PLATE.
Setting [2] is: Test System: AMES SALMONELLA TYPHIMURIUM, Strain/Indicator: TA1535, Metabolic Activation: NONE, Method: STANDARD PLATE.
[3] abbreviates: Test System: AMES SALMONELLA TYPHIMURIUM, Strain/Indicator: TA102, Metabolic Activation: NONE, Method: PREINCUBATION
Setting [4] is: Test System: AMES SALMONELLA TYPHIMURIUM, Strain/Indicator: TA98, Metabolic Activation: RAT, LIVER, S-9, AROCLOR 1254, Method: STANDARD PLATE.

Molecules are shown by their SMILES. The source made the active and inactive calls. The rule behind the calls is not given here.

Consider `Oc1cnc2ccccc2c1`, for which the mutagenic call is, setting by setting: under setting [1], “inactive; negative”; (Test System: AMES SALMONELLA TYPHIMURIUM, Strain/Indicator: TA100, Metabolic Activation: RAT, LIVER, S-9, AROCLOR 1254 (10% OR 20%), Method: STANDARD PLATE) “inactive; negative”.
Regarding `O=[Se](O)O`, the mutagenic call by setting is: (End Point: IN VIVO CHROMOSOMAL ABERRATIONS, Test System: TESTICULAR CELLS, Species: MOUSE, Strain/Sex: KUNMING/MALE, Route: DIET) “selenite reduced number of chromosomal aberrations induced by mmc”; (End Point: IN VIVO MICRONUCLEUS, Test System: BONE MARROW CELLS, POLYCHROMATIC ERYTHROCYTES, Species: MOUSE, Strain/Sex: KUNMING/FEMALE, Route: DIET) “selenite reduced micronuclei induced by cyclophosphamide”; under setting [2], “active; positive”; (Test System: CHINESE HAMSTER OVARY, Strain/Indicator: CHO-K1-BH4 (HGPRT)/6-THIOGUANINE, Metabolic Activation: NONE) “active; positive”; (Test System: E. COLI, Strain/Indicator: WP2 UVRA, Metabolic Activation: NONE, Method: SPOT TEST) “inactive; negative”; (Test System: MOUSE LYMPHOMA, Strain/Indicator: L5178Y (TK+/TK-), Metabolic Activation: NONE, Method: SUSPENSION/PLATE) “active; positive. reevaluation of results: positive”. The mutagenic call reads like this: (Test System: MOUSE LYMPHOMA, Strain/Indicator: L5178Y (TK+/TK-), Metabolic Activation: RAT, LIVER, S-9, AROCLOR 1254, Method: SUSPENSION/PLATE) “active; positive. reevaluation of results: positive”; (Test System: UDS HUMAN FIBROBLASTS, Strain/Indicator: THY INCORP (NON-S-PHASE), Metabolic Activation: MOUSE, LIVER, S-9, Method: AUTORADIOGRAPHY) “active; positive”.
Turning to `Nc1nc2c(ncn2[C@@H]2O[C@H](COP(=O)(O)O)[C@@H](O)[C@H]2O)c(=O)[nH]1`, the mutagenic call was “inactive; negative” (Test System: AMES SALMONELLA TYPHIMURIUM, Strain/Indicator: TA97, Metabolic Activation: NONE, Method: PREINCUBATION); “inactive; negative” (Test System: AMES SALMONELLA TYPHIMURIUM, Strain/Indicator: TA97, Metabolic Activation: RAT, LIVER, S-9, AROCLOR 1254, Method: PREINCUBATION); “inactive; negative” under setting [3]; “inactive; negative” (Test System: AMES SALMONELLA TYPHIMURIUM, Strain/Indicator: TA102, Metabolic Activation: RAT, LIVER, S-9, AROCLOR 1254, Method: PREINCUBATION).
`Cc1cc2ccccc2c2ccc3c(c12)C=CC(=O)C3=O`: the mutagenic call reads like this: (Test System: AMES SALMONELLA TYPHIMURIUM, Strain/Indicator: TA97A, Metabolic Activation: NONE, Method: PREINCUBATION) “active; positive”; (Test System: AMES SALMONELLA TYPHIMURIUM, Strain/Indicator: TA98, Metabolic Activation: NONE, Method: PREINCUBATION) “inactive; negative”; (Test System: AMES SALMONELLA TYPHIMURIUM, Strain/Indicator: TA100, Metabolic Activation: NONE, Method: PREINCUBATION) “active; positive”; under setting [3], “inactive; negative”; (Test System: AMES SALMONELLA TYPHIMURIUM, Strain/Indicator: TA104, Metabolic Activation: NONE, Method: PREINCUBATION) “inactive; negative”.
Regarding `O=C1C=CC(=O)C(c2ccc(Cl)cc2)=C1`, where the note is “End Point: In vitro micronucleus, Test System: Chinese hamster lung V79 cells, Metabolic Activation: None”, the mutagenic call was “active; positive”.
Regarding `O=C/C=C/C=C/CO`, for the setting “Test System: CHINESE HAMSTER V-79, Strain/Indicator: V-79 (HGPRT)/8-AZAGUANINE, Metabolic Activation: NONE”, the mutagenic call was “active; positive”.
On to `C=CC(=O)OCCCCOC(=O)C=C`, for which the mutagenic call is “inactive; negative” (Test System: AMES SALMONELLA TYPHIMURIUM, Strain/Indicator: TA98, Metabolic Activation: NONE, Method: STANDARD PLATE); “inactive; negative” under setting [4]; “inactive; negative” (Test System: AMES SALMONELLA TYPHIMURIUM, Strain/Indicator: TA98, Metabolic Activation: RAT, LIVER, S-9, SODIUM PHENOBARBITAL, Method: STANDARD PLATE); “inactive; negative” under setting [1]; “inactive; negative” (Test System: AMES SALMONELLA TYPHIMURIUM, Strain/Indicator: TA100, Metabolic Activation: RAT, LIVER, S-9, AROCLOR 1254, Method: STANDARD PLATE); “inactive; negative” (Test System: AMES SALMONELLA TYPHIMURIUM, Strain/Indicator: TA100, Metabolic Activation: RAT, LIVER, S-9, SODIUM PHENOBARBITAL, Method: STANDARD PLATE). The mutagenic call is “inactive; negative” under setting [2]; “inactive; negative” (Test System: AMES SALMONELLA TYPHIMURIUM, Strain/Indicator: TA1535, Metabolic Activation: RAT, LIVER, S-9, AROCLOR 1254, Method: STANDARD PLATE); “inactive; negative” (Test System: AMES SALMONELLA TYPHIMURIUM, Strain/Indicator: TA1535, Metabolic Activation: RAT, LIVER, S-9, SODIUM PHENOBARBITAL, Method: STANDARD PLATE); “inactive; negative” (Test System: AMES SALMONELLA TYPHIMURIUM, Strain/Indicator: TA1537, Metabolic Activation: NONE, Method: STANDARD PLATE); “inactive; negative” (Test System: AMES SALMONELLA TYPHIMURIUM, Strain/Indicator: TA1537, Metabolic Activation: RAT, LIVER, S-9, AROCLOR 1254, Method: STANDARD PLATE); “inactive; negative” (Test System: AMES SALMONELLA TYPHIMURIUM, Strain/Indicator: TA1537, Metabolic Activation: RAT, LIVER, S-9, SODIUM PHENOBARBITAL, Method: STANDARD PLATE). In addition, the mutagenic call by setting is: (Test System: AMES SALMONELLA TYPHIMURIUM, Strain/Indicator: TA1538, Metabolic Activation: NONE, Method: STANDARD PLATE) “inactive; negative”; (Test System: AMES SALMONELLA TYPHIMURIUM, Strain/Indicator: TA1538, Metabolic Activation: RAT, LIVER, S-9, AROCLOR 1254, Method: STANDARD PLATE) “inactive; negative”; (Test System: AMES SALMONELLA TYPHIMURIUM, Strain/Indicator: TA1538, Metabolic Activation: RAT, LIVER, S-9, SODIUM PHENOBARBITAL, Method: STANDARD PLATE) “inactive; negative”.
As to `Cc1cnc2c(cc(C)c3c2nc(N)n3C)n1`, the mutagenic call under setting [4] was “active; positive”.
